Legend:
Format in all cases: physicochemical
[1] = Furfural and 5-hydroxymethylfurfural in headspace of heated solutions; conditions: solutions in water
Protocol: The solutions were rapidly heated to set temperatures and held at temperature for 5 min. After 5 min, the samples were rapidly cooled. […] (FIG. 18). The data is also plotted in FIG. 18 until 180° C.

[2] = Heating in a closed system (sealed microwave reactor tubes, 2 min), saccharides by ion-exchange chromatography; conditions: acidic conditions (pH 3 buffer), 177° C.
[3] = Breakdown products by GCMS without an amino acid present; conditions: pH 7, 160° C., 10 min
Protocol: (§1) Controls were prepared addition of 1 mL of pH 7 buffer to the amino acids. The samples were rapidly heated to 160° C. and held at this temperature for 10 min. Samples were rapidly cooled afterwards, and absorbance at 500 nm was measured for each reaction mixture. Volatiles were analysed using gas chromatography mass spectrometry (GCMS) analysis. An Agilent Technologies 5975B Inert XL MSD gas chromatography, single quadruple mass spectrometer was used for analysis of volatiles. Samples were added to separate GCMS headspace vials and weighed. 0.03 g of 0.01% 3-heptanone in water was added and the vial was sealed for GCMS solid phase micro extraction (SPME) analysis. Samples were analysed in a randomized order. Samples were incubated and agitated at 250 RPM, at 60° C. for 15 min prior to SPME analysis of volatiles. The SPME fibre (50/30 DVB/CAR/PDMS, 23 Ga) extracted for 10 min, then thermally desorbed at 250° C. for 5 min. A 30 m×0.25 mm×0.25 μm HP-5MS column was used (Phenomenex, UK). Oven temperature settings: 31° C.-5 min, 5° C./min to 150° C., 30° C./min to 240° C. Inlet settings: 250° C., pressure 10.4 psi, flow 11.2 mL/min, split ratio 7:1. MS operated in full scan mode from 40 to 400 m/z with a scan time of 0.2s. The peak area of the aroma compounds was compared to the peak of the internal standard 3-heptanone and corrected for the weight of the sample.
(§2) The concentration of the different classes of Maillard reaction breakdown products is presented in Tables 9B-E. The same data as Tables 9B-E is also presented in FIG. 27. Concentrations are in parts per billion of the difference non-enzymatic breakdown products for the different compositions at 160° C. analysed by GCMS.

[4] = Breakdown products by GCMS after Maillard reaction in the presence of Histidine; conditions: 160° C.
Protocol: as §1, §2

[5] = Breakdown products by GCMS after Maillard reaction in the presence of Tryptophan; conditions: with Tryptophan, pH 7, 160° C., 10 min
Protocol: as §1, §2

[6] = pH and absorbance at 420 nm of closed-system heated solutions

Compound: OC[C@H]1O[C@@](CO)(O[C@H]2O[C@H](CO)[C@@H](O)[C@H](O)[C@H]2O)[C@@H](O)[C@@H]1O [Sucrose]
- temperature at which HMF concentration increased [1]: 180 °C
- sucrose degraded [2]: around 85%
- Concentration of 2-Butanone [3]: 178.52 ppb
- Concentration of 2-Propanone, 1-hydroxy- [3]: 96.48 ppb
- Concentration of 5-methyl furfural [3]: 0 ppb
- Concentration of Diacetyl (2,3-Butanedione) [3]: 245.45 ppb
- Concentration of Furan, 2-methyl- [3]: 0 ppb
- Concentration of Furfural [3]: 1.42 ppb
- 2-Butanone concentration ([4]; Carbonyls/ketones): 1.44 ppb
- 2-Propanone, 1-hydroxy- concentration ([4]; Carbonyls/ketones): 14.57 ppb
- Diacetyl (2,3-Butanedione) concentration ([4]; Carbonyls/ketones): 1.62 ppb
- Furan, 2-methyl- concentration ([4]; Furans): 0 ppb
- Furfural concentration ([4]; Furans): 0.03 ppb
- Pyrazine, 2,5-diethyl- concentration ([4]; Pyrazines): 0.48 ppb
- Pyrazine, 2,5-dimethyl- concentration ([4]; Pyrazines): 175.23 ppb
- Pyrazine, 2-ethyl-5-methyl- concentration ([4]; Pyrazines): 34.95 ppb
- Pyrazine, ethyl- concentration ([4]; Pyrazines): 0.14 ppb
- Pyrazine, methyl- concentration ([4]; Pyrazines): 0 ppb
- Concentration of 2-Butanone [5]: 3.16 ppb
- Concentration of 2-Propanone, 1-hydroxy- [5]: 20.48 ppb
- Concentration of Diacetyl (2,3-Butanedione) [5]: 6.99 ppb
- Concentration of Furan, 2-methyl- [5]: 0.25 ppb
- Concentration of Furan, 2-pentyl- [5]: 0.03 ppb
- Concentration of Furfural [5]: 0.03 ppb
- Concentration of Indole [5]: 20.81 ppb
- Concentration of Pyrazine, 2,5-diethyl- [5]: 5.74 ppb
- Concentration of Pyrazine, 2,5-dimethyl- [5]: 778.85 ppb
- Concentration of Pyrazine, 2-ethyl-5-methyl- [5]: 201.9 ppb
- Concentration of Pyrazine, ethyl- [5]: 0.19 ppb
- Concentration of Pyrazine, methyl- [5]: 0.56 ppb
- A420 after heating to 177° C. ([6]; samples labelled as pH 3): 0.089
- A420 before heating ([6]; samples labelled as pH 3): 0.082
- pH after heating to 177° C. ([6]; samples labelled as pH 3): 3.08
- pH before heating ([6]; samples labelled as pH 3): 3
- A420 after heating to 110° C. ([6]; samples labelled as pH 7): 0.086
- A420 before heating ([6]; samples labelled as pH 7): 0.115
- pH after heating to 110° C. ([6]; samples labelled as pH 7): 6.88
- pH after heating to 177° C. ([6]; samples labelled as pH 7): 6.84
- pH before heating ([6]; samples labelled as pH 7): 6.78
- A420 before heating ([6]; samples labelled as pH 9): 0.087
- pH after heating 177° C. ([6]; samples labelled as pH 9): 8.14
- pH before heating ([6]; samples labelled as pH 9): 8.76
